Results: patent US20090036464A1, “Treatment Of Posterior Capsule Opacification” (priority 2004, published 2009)

Assays:
[1] = system: adult dermal microvascular endothelial cells; assay: MTS cell viability, rescue by sigma-1 agonists; type: cell-based, human; details: co-administration of equimolar concentrations (10 μM) of sigma-1 agonist
Method: (§1) Human adult male dermal fibroblasts, adult mammary epithelial cells, adult dermal microvascular endothelial cells and bovine lens epithelial cells at low passage were exposed to 10 μM concentrations of the sigma-1 antagonists rimcazole and IPAG for up to 72 hours. Change in cell viability over time was measured in the MTS assay; data points represent mean values (±SD), obtained from wells in triplicate, expressed relative to baseline (pre-treatment) values. Graphs depict representative experiments, performed at least three times.

[2] = system: human lens cell line FHL124; assay: FHL124 cell growth patch assay; type: cell-based; details: for growth of FHL124 cells: 4 days
Method: The effect of sigma ligands on human lens cell growth in FHL124 cell line maintained in serum-free media (A) or EMEM supplemented with 5% FCS (B). […] The cells were cultured for 4 days with experimental conditions. Experiments were repeated on 4 occasions. Data are expressed as Mean±S.E.M., the star represents significant difference from untreated control with rimcazole, and box represents significant difference from untreated control with (±)SKF 10047 (test p<0.05).
The effect of sigma-1 ligands on human lens cell growth in FHL 124 cell line maintained in serum-free media. A represents the data of patch area measurement. B represents the dye extraction from each stained patch, ie. cell number. The cells were cultured for 4 days with experimental conditions. Experiments were repeated on 4 occasions. Data are expressed as Mean±S.E.M, the star represents significant difference from untreated control with rimcazole, and ▪ represents significant difference from untreated control with (±)SKF10047 (test p<0.05).
The growth of the spontaneously immortal human lens cell line FHL124 was investigated using a patch assay. Cells grown from a single patch derived from a coverslip and stained with dye to estimate the cell number. […] (FIG. 6). […] Attenuation of rimcazole and BD-1047-mediated growth inhibition by a highly specific sigma-1 agonist confirms that growth inhibition is at least partly mediated through antagonism of sigma-1 sites.

[3] = system: bovine lens epithelial cells; assay: in vitro cell death assay (MTS cell viability) on tissue culture plastic; type: cell-based; details: 10 μM, up to 72 hours, FIG. 1
Method: as §1

[4] = system: human lens epithelial cells on the posterior capsule; assay: in vitro capsular bag growth assay (cell coverage of the posterior capsule); type: cell-based; details: for growth of human lens cells on the posterior capsule: 3 μm, FIG. 2, FIG. 3
Method: Rate of cell coverage of the posterior capsule beyond the rhexis; 100% represents confluency. Experiments were repeated on 4 occasions. The means and standard errors are display ed.
(§2) Rate of cell coverage of the posterior capsule beyond the rhexis; 100% represents confluency. Experiments were repeated on 4 occasions.
The model previously described by Liu et al (1996) was used. A sham cataract operation was performed on human donor eyes. The resultant capsular bag was then dissected free of the zonules and secured on a sterile 35 mm PMMA petri dish. Eight entomological pins (D1: Watkins and Doncaster Ltd., Kent, UK) were inserted through the edge of the capsule to retain its circular shape. Incubation was at 35° C. in a 5% CO2 atmosphere. Ongoing observations were performed with a Nikon phase-contrast microscope and images captured with a digital camera (Coolpix 950; Nikon. Tokyo, Japan) with associated imaging software (a person, personal communication). In some cases preparations were used for radioactive isotope studies.
(§3) The bags were maintained in Eagle's minimum essential medium (EMEM) or EMEM supplemented with either 3 μM Rimcazole dihydrochloride (rimcazole), 10 μm(+)-SKF 10047 hydrochloride (SKF), and 3 μM or 10 μM BD1047 dihydrochloride (BD1047) (all supplied by TOCRIS) and incubate at 35° C. in a 5% CO2 atmosphere. The medium was replaced every 2 days and ongoing observations and analyses were performed as above.

tumour cells = assay: tumour cell growth inhibition / killing; type: cell-based, human; details: read-out: IC50 (concentration of drug required to produce 50% growth inhibition) for tumour cells
From the text: It has therefore been proposed that the subcellular localisation of the sigma receptor may contribute to the degree of susceptibility to sigma ligands (Spruce et al Cancer Research 2004). Without wishing to be bound by theory, the present inventors postulated that differential subcellular localisation of the sigma receptor, or other factors, could lead to sigma ligands being differentially potent in lens epithelial cells compared to tumour cells. […] Specifically, the IC50 (the concentration of drug required to produce 50% growth inhibition) of BD-1047 for tumour cells is in the region 50-100 micromolar; in contrast, the IC50 for human lens epithelial cells (in the capsular bag system) is in the region of 10 micromolar.
as §2

[5] = system: primary human lens epithelial cells on the posterior capsule; assay: pigmentation of lens cells during growth inhibition assays; type: cell-based; details: sub-lethal dose (3 μM), control cells remained clear, FIG. 8, 9
Method: Phase micrographs of cultured human lens cells on central anterior (upper) and posterior capsule (lower) respectively. The cells were maintained in serum-free or supplemented (3 μM Rimcazole) media for one week. The images were converted to grayscale with Adobe photoshop software.
Formation of pigment granules in human epithelial cells. A. Different stages of pigment granule formation (I-IV) as defined in MNT-1 melanoma cells by Seiji et al. 1963. B. Cross section of human lens epithelial cells grown in (a) control medium and (b) the presence of 3 μM BD1047.
as §3
This pigmentation was also present in cells similarly tested on the rhexis (anterior capsule) removed during preparation of the capsular bag (FIG. 8) and in the FHL-124 lens cell line (not shown). […]

[6] = system: lens epithelial cells in the presence of the bovine capsule; details: versus cells cultured in isolation; cited from earlier work
[7] = system: human lens epithelial cells; assay: efflux of radioactive isotopes (3H-dopamine, 14C-tyrosine) in capsular bags; type: cell-based; details: capsular bag system, 3 μM rimcazole
Method: Efflux of (A) ^3H-dopamine and (B) ^14C-tyrosine from human lens epithelial cells in control (SF) and rimcazole supplemented media. Data are presented as mean±6 separate experiments.
Capsular bags were maintained in Eagle's minimum essential medium (EMEM) or EMEM supplemented with 3 μM. Rimcazole dihydrochloride (rimcazole) (TOCRIS) for 7 days (when the pigment granules could be observed in cells). 1 μCl/ml of ^3H-dopamine and 2 μCi/ml of ^14C-tyrosine (Amersham Biosciences) were then added to each dish for an additional 24 hours. At the end point, 10 μl of medium were collected from each dish, and transferred into scintillation vials. The bags were washed briefly twice with EMEM and fresh control or experimental media added for one hour. The medium was then collected into scintillation vials and the procedure repeated eights times. The experiment was then terminated by adding 1 ml of ice-cold 5% Trichloroacetic acid (TCA) (Fisher Chemicals) to each dish. After 30 minutes, the TCA was removed from each well to determine the cytosolic dopamine and tyrosine levels. 1 ml of 250 mM NaOH was then added to each dish to determine the radio-isotope levels in the TCA precipitable fraction. 10 mls of scintillation fluid (Hisafe Supermix) were then added to each scintillation vial and the samples assayed using a Wallac scintillation counter with appropriate background controls. […]

SMILES: C=CCN1CCC2(C)c3cc(O)ccc3CC1C2C.Cl (single isomer, unassigned; (+)) [(+)-SKF10047, (+)-SKF 10047 hydrochloride]
- protection of microvascular endothelial cells from rimcazole and IPAG [1]: protected
- rescue of sigma antagonist (rimcazole)-mediated growth inhibition of FHL124 cells ([2]; both concentrations, serum free medium, FIG. 5): partially rescues
- restoration of growth to BD1047 inhibited FHL124 cells ([2]; higher concentrations of BD1047 (10 and 30 μm), FIG. 6): partially restores growth

SMILES: CC(C)=CCN1CCC2(C)c3cc(O)ccc3CC1C2C (single isomer, unassigned; (+)) [(+)-pentazocine]
- protection of microvascular endothelial cells from rimcazole and IPAG [1]: protected

SMILES: NC(=NC1C2CC3CC(C2)CC1C3)Nc1ccc(I)cc1 (centres unmarked) [IPAG]
- susceptibility of primary bovine lens cells in tissue culture compared with tumour cells [3]: almost as susceptible

SMILES: CN(C)CCN(C)CCc1ccc(Cl)c(Cl)c1 [BD1047]
- growth of human lens cells on the posterior capsule [4]: less inhibitory
- growth of lens cells on the capsule ([4]; 10 μm, FIG. 4): potently inhibits growth
- IC50 ([4]; in the capsular bag system): ~10 µM
- growth inhibition of FHL124 cells (patch size, protein content) ([2]; lower dose (10 μm), serum-free, FIG. 6): less effective
- IC50 (tumour cells): 50 to 100 µM
- pigmentation of primary human lens epithelial cells [5]: become pigmented

SMILES: C[C@@H]1CN(CCCn2c3ccccc3c3ccccc32)C[C@H](C)N1 [Rimcazole]
- ability to induce apoptosis in lens epithelial cells [6]: substantially less able to induce apoptosis
- dopamine efflux ([7]; FIG. 10A): unaffected
- efflux of 14C-tyrosine from lens cells ([7]; FIG. 10B): no effect
- growth of human lens cells on the posterior capsule [4]: inhibits growth
- cell killing in human lens epithelial cells ([4]; contained in the human capsular bag system): potently induces cell killing
- growth of FHL124 cells ([2]; 3 and 10 μm, serum free medium, FIG. 5): significantly inhibited
- growth of FHL124 cells ([2]; 5% FCS, higher dose (10 μm), FIG. 5): growth inhibition is less marked
- susceptibility of primary bovine lens cells in tissue culture compared with tumour cells [3]: almost as susceptible
- pigmentation of primary human lens epithelial cells [5]: become pigmented
